≈ marks a conversion by molar mass, not a printed value.
How the values were obtained:
P388 = test: Cytotoxicity against mouse P388 cells; type: functional; details: read-out: ED50 (the source's name)
Bacillus subtilis = test: Antimicrobial activity against Bacillus subtilis ATCC 6633; type: functional, organism-based
Staphylococcus aureus = test: Antimicrobial activity against Staphylococcus aureus ATCC 6538; type: functional, organism-based

Molecule	EC50 (P388)	MIC (Bacillus subtilis)	MIC (Staphylococcus aureus)
CCCCC[C@H]1CCCCCCCCCC(=O)O[C@H]2[C@H](O)[C@@H](CO)O[C@@H](O[C@H]3[C@H](O1)O[C@H](C)[C@H](O)[C@@H]3O)[C@@H]2O[C@@H]1O[C@@H](C)[C@H](OC(=O)[C@@H](C)CC)[C@@H](O[C@@H]2O[C@@H](C)[C@H](O)[C@@H](O)[C@H]2O)[C@H]1OC(=O)[C@@H](C)CC [TRICOLORIN A]	2.2 µg/mL (≈ 2.15 µM)		
NYSTATIN		16 µg/mL	8 µg/mL

Reference: ChEMBL document CHEMBL1150092, “Isolation and characterization of cytotoxic and antibacterial tetrasaccharide glycosides from Ipomoea stans” (1995)
